The values below are quoted from earlier work in patent publication US9827234B1, “Dose-dumping resistant controlled release dosage form” (OSMOTICA KERESKEDELMI ES SZOLGALTATO KFT, priority 2017, dated 2017).

For series [1] the following is noted: 5 mg 3× daily, rapid release tablet.

Regarding `COC(=O)C(c1ccccc1)C1CCCCN1` (centres unmarked) [Methylphenidate, methyl 2-phenyl-2-(piperidin-2-yl)acetate], in series [1], the highest concentration (Cmax) is listed as 4.2 ± 1.0 ng/mL, the time to peak (Tmax) is given as 6.5 ± 1.8 h and the “T½” value is listed as 3.0 ± 0.5 h. For the same compound, the “enhance the bioavailability of MPH” value (consuming alcohol (ethanol), Patrick et al. 2007) is “up to 40%”. The plasma half-life (in vivo) is 2 to 3 h.
